One experiment relates to Aβ peptide. Description: Cerebral Aβ peptide levels (soluble and total brain fractions) in Tg53 transgenic mice, immunoelectrochemoluminescence assay. The experiment is classed as in vivo, mouse. The settings on record: for levels of total Aβ / levels of total Aβ reduced compared with control group: Test 3; for levels of total Aβ: control 108.1±8.5.
The test system of the next experiment is plasma cholesterol. Description: Plasma cholesterol level in Tg53 transgenic mice after treatment in feed. The experiment is classed as in vivo, mouse. The protocol: The compound A in powdered form was mixed at the dose of 0.01% (weight/weight) with standard feed in powdered form.
Transgenic mice Tg53 (overexpressing the human APP transgene carrying the “Swedish” and “London” mutations, (2002 Wirths, et al. (2002). Brain Pathol. 12, 275-286), 8-10 week old females, were treated for 3 weeks. The mice were housed in an individual cage with drink being available ad libitum. Every day, 6 grams of powdered food (supplemented or otherwise with compound A) were distributed in each cage. Two groups of 11 to 12 animals (control regimen or regimen supplemented with compound A) were used. At the end of the treatment, a blood sample was collected and the plasma cholesterol level was determined using an automated device for biological analysis.

The structures appear in SMILES notation.

`CCCC[C@]1(CC)CS(=O)(=O)c2ccc(N(C)C)cc2[C@@H](c2cccc(NC(=O)CCCCNC[C@H](O)[C@@H](O)[C@H](O)[C@H](O)CO)c2)[C@H]1O` [compound A]: the “decrease in the cerebral level of soluble Aβ peptide compared to control regimen group” value with Aβ peptide (Test 1, Tg53 females 8-10 weeks old, 0.01% (w/w) in feed, 3 weeks, p=0.0103) amounted to 18%. For the same compound, the “cerebral levels of total peptide Aβ” value with Aβ peptide (Test 2, female transgenic mice 15.5 weeks old at end of treatment, 0.01% in feed, n=8, control 364.2±40.9) is listed as 196.3±17.8 ng/g of tissue. In addition, in the experiment on Aβ peptide (Test 2, female transgenic mice 15.5 weeks old at end of treatment, 0.01% in feed, p=0.0001), the “reduction in the cerebral level of soluble Aβ peptide compared with control regime group” value amounted to 40%. Moreover, the “cerebral levels of total peptide Aβ reduced compared with control regime group” value with Aβ peptide (Test 2, female transgenic mice 15.5 weeks old at end of treatment, 0.01% in feed, p=0.0017) was found to be 46%. The “levels of total Aβ” value was 85.4±4.1 ng/g of tissue with Aβ peptide (0.0001% in feed, n=8); 86.5±5.9 ng/g of tissue with Aβ peptide (0.001% in feed, n=10); 90.5±6.9 ng/g of tissue with Aβ peptide (0.01% in feed, n=10). For the same compound, the “levels of total Aβ reduced compared with control group” value came to 21% with Aβ peptide (0.0001% in feed, p=0.04); 20% with Aβ peptide (0.001% in feed, p=0.050); 16% in the experiment on Aβ peptide (0.01% in feed, p=0.123, ns). Besides, the plasma cholesterol level is 0.62 ± 0.030 g/L in the experiment with plasma cholesterol (Test 1, Tg53 females 8-10 weeks old, 0.01% (w/w) in feed, 3 weeks, n=11, control 0.72±0.023) and 0.70 ± 0.03 g/L in the experiment on plasma cholesterol (Test 2, female transgenic mice 15.5 weeks old at end of treatment, 0.01% in feed, n=8, control 0.85±0.03). Moreover, in the experiment with plasma cholesterol (Test 1, Tg53 females 8-10 weeks old, 0.01% (w/w) in feed, 3 weeks, p=0.0154), the “plasma cholesterol level reduced compared to control regimen group” value came to 14%. Further, in the experiment with plasma cholesterol (Test 2, female transgenic mice 15.5 weeks old at end of treatment, 0.01% in feed, p=0.0037), the “plasma cholesterol level reduced compared with control regime group” value was 18%.

Values taken from patent publication US20040138145A1, “Application of intestinal biliary acid reuptake inhibitors for the prevention and treatment of alzheimer's disease” (Aventis Pharma S.A., priority 2002, published 2004).
